Results taken from ChEMBL document CHEMBL1201862, “PubChem BioAssay data set” (2004).
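1) Cells in 96-well plates. 2) Compound, 48 h, 5 concentrations. 3) Linear interpolation between surrounding doses. 4) Unreached endpoint = highest concentration. Here, GI50 denotes the concentration required for 50% inhibition of growth.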 Active and inactive are the calls of the source. Cut-off read from the data, not from the text of the source: active = GI50 up to about 1.1 µM and inactive = higher.

Legend:
Assay in all cases: DTP human tumour cell line panel, 48 h
HCT-15 = system: HCT-15
DU-145 = system: DU-145
A498 = system: A498
MDA-N = system: MDA-N
NCI-H23 = system: NCI-H23
SK-MEL-28 = system: SK-MEL-28
SNB-75 = system: SNB-75
SW-620 = system: SW-620
ACHN = system: ACHN
UACC-62 = system: UACC-62
Malme-3M = system: Malme-3M
UACC-257 = system: UACC-257
MDA-MB-435 = system: MDA-MB-435
NCI/ADR-RES = system: NCI/ADR-RES
SF-295 = system: SF-295
OVCAR-4 = system: OVCAR-4
SR = system: SR
HT-29 = system: HT-29
U-251 = system: U-251
CAKI-1 = system: CAKI-1

SMILES	GI50 (HCT-15)	GI50 (DU-145)	GI50 (A498)	GI50 (MDA-N)	GI50 (NCI-H23)	GI50 (SK-MEL-28)	GI50 (SNB-75)	GI50 (SW-620)	GI50 (ACHN)	GI50 (UACC-62)	GI50 (Malme-3M)	GI50 (UACC-257)	GI50 (MDA-MB-435)	GI50 (NCI/ADR-RES)	GI50 (SF-295)	GI50 (OVCAR-4)	GI50 (SR)	GI50 (HT-29)	GI50 (U-251)	GI50 (CAKI-1)
CO[C@@H]1[C@@H](OC2OC(C)C(OC3CC(C)(O)C(OC(=O)CC(C)C)C(C)O3)C(N(C)C)C2O)[C@@H](CC=O)C[C@@H](C)C(=O)/C=C/C2O[C@H]2C[C@@H](C)OC(=O)C[C@H]1OC(C)=O (stereo partly drawn)	18.6 µM	14.6 µM (inactive)	23 µM (inactive)	15.2 µM (inactive)	18.9 µM (inactive)	18.5 µM (inactive)	31.6 µM (inactive)	17.5 µM (inactive)	18.7 µM (inactive)	21.4 µM (inactive)	14 µM (inactive)	17.2 µM (inactive)	17.7 µM (inactive)	31 µM (inactive)	24.7 µM (inactive)	15.2 µM (inactive)	11.3 µM (inactive)	12.3 µM (inactive)	16.4 µM (inactive)	–
O=C1/C(=C/c2ccccc2O)N=C(c2ccccc2)N1c1nc2ccccc2s1	6.11 µM	27.3 µM (inactive)	20.4 µM (inactive)	2.51 µM (inactive)	11.1 µM (inactive)	21.3 µM (inactive)	21.4 µM (inactive)	11.2 µM (inactive)	23.7 µM (inactive)	–	–	19.8 µM (inactive)	3.1 µM (inactive)	14.5 µM (inactive)	14.7 µM (inactive)	32.1 µM (inactive)	2.24 µM (inactive)	20.9 µM (inactive)	10.1 µM (inactive)	32.7 µM (inactive)
Cc1cc(C)nc(SCCc2cccc[n+]2C)n1	> 100 µM	> 100 µM (inactive)	60.7 µM (inactive)	> 100 µM (inactive)	> 100 µM (inactive)	> 100 µM (inactive)	> 100 µM (inactive)	> 100 µM (inactive)	> 100 µM (inactive)	> 100 µM (inactive)	> 100 µM (inactive)	> 100 µM (inactive)	> 100 µM (inactive)	> 100 µM (inactive)	> 100 µM (inactive)	> 100 µM (inactive)	–	> 100 µM (inactive)	> 100 µM (inactive)	> 100 µM (inactive)
CC(CN1NC12CCCC2)N1NC12CCCC2 (stereo not drawn)	> 100 µM	> 100 µM (inactive)	> 100 µM (inactive)	> 100 µM (inactive)	> 100 µM (inactive)	> 100 µM (inactive)	> 100 µM (inactive)	> 100 µM (inactive)	> 100 µM (inactive)	> 100 µM (inactive)	> 100 µM (inactive)	60.8 µM (inactive)	> 100 µM (inactive)	> 100 µM (inactive)	> 100 µM (inactive)	> 100 µM (inactive)	–	> 100 µM (inactive)	> 100 µM (inactive)	> 100 µM (inactive)
CCNC12CCC(C1)C(C)(C)C2=O (stereo not drawn)	> 100 µM	> 100 µM (inactive)	> 100 µM (inactive)	> 100 µM (inactive)	> 100 µM (inactive)	> 100 µM (inactive)	> 100 µM (inactive)	> 100 µM (inactive)	> 100 µM (inactive)	> 100 µM (inactive)	–	> 100 µM (inactive)	> 100 µM (inactive)	> 100 µM (inactive)	> 100 µM (inactive)	> 100 µM (inactive)	> 100 µM (inactive)	–	> 100 µM (inactive)	> 100 µM (inactive)
Cc1c(NC(=O)CSC(=S)N(C)C)c(=O)n(-c2ccccc2)n1C	> 100 µM	> 100 µM (inactive)	–	> 100 µM (inactive)	> 100 µM (inactive)	> 100 µM (inactive)	> 100 µM (inactive)	> 100 µM (inactive)	> 100 µM (inactive)	–	> 100 µM (inactive)	> 100 µM (inactive)	> 100 µM (inactive)	> 100 µM (inactive)	> 100 µM (inactive)	> 100 µM (inactive)	> 100 µM (inactive)	> 100 µM (inactive)	> 100 µM (inactive)	> 100 µM (inactive)
Cc1ccc(S(=O)(=O)N2CCCN(S(=O)(=O)c3ccc(C)cc3)CCN(S(=O)(=O)c3ccc(C)cc3)CCCSCC2)cc1	–	> 100 µM (inactive)	> 100 µM (inactive)	> 100 µM (inactive)	> 100 µM (inactive)	> 100 µM (inactive)	> 100 µM (inactive)	> 100 µM (inactive)	> 100 µM (inactive)	> 100 µM (inactive)	–	–	> 100 µM (inactive)	> 100 µM (inactive)	89.7 µM (inactive)	> 100 µM (inactive)	–	> 100 µM (inactive)	76.7 µM (inactive)	–
O=C1CCC2(c3ccc(F)cc3)Nc3ncncc3N12 (stereo not drawn)	> 10 µM	> 10 µM (inactive)	–	> 10 µM (inactive)	> 10 µM (inactive)	–	> 10 µM (inactive)	> 10 µM (inactive)	> 10 µM (inactive)	> 10 µM (inactive)	> 10 µM (inactive)	> 10 µM (inactive)	> 10 µM (inactive)	> 10 µM (inactive)	> 10 µM (inactive)	> 10 µM (inactive)	> 10 µM (inactive)	> 10 µM (inactive)	> 10 µM (inactive)	–
